Key:
VEGF2 = VEGF2 (Homo sapiens, UniProt P35968); test: SelectScreen Profiling, Z'-LYTE kinase assay, VEGF2; assay type: biochemical; conditions: 1 μM compound, ATP at Km, read-out: VEGF 2 inh % @1 μM
Text: (§1) Some of the example compounds were submitted to Life Technologies Corporation SelectScreen® Profiling Service to test their potency in inhibiting the kinase catalytic activities of mTOR, PI3Kα, VEGF2, FGFR1, HER1 (EGFR) and HER2. A concentration of ATP at the Km of the corresponding kinase was used for all assays. The mTOR (FRAP1), VEGF2, FGFR1, HER1 (EGFR) and HER2 assays used Z′-LYTE® technology. The PI3Kα assay used Adapta® technology. The symbol “inh %” as used herein generally refers to inhibition percentage.

HER1 (EGFR) = HER1 (EGFR) (Homo sapiens, UniProt P00533); test: SelectScreen Profiling, Z'-LYTE kinase assay, HER1 (EGFR); assay type: biochemical; conditions: 1 μM compound, ATP at Km, read-out: HER1 inh % @1 μM
Text: as §1

[1] = Rat pharmacokinetic study (IV and PO); assay type: in vivo; conditions: for AUC(0-t) / Cmax / MRT / clearance / half-life / Tmax / bioavailability: blood; for bioavailability: PO 10 mg/kg vs IV 5 mg/kg, read-out: Fpo (oral bioavailability)
Experimental: (§2) Active mTOR inhibitors in enzymatic and/or cell-based assays herein were evaluated for pharmacokinetic properties. Preferable compounds are with pharmacokinetic properties of low clearance, long half-life and/or good oral bioavailability (Fpo). In vitro, selected example compounds were evaluated for metabolic stability by incubating with human liver microsome (HLM) for 60 min. Compounds that were metabolized slower (i.e. higher % remaining) are preferred. […] The more metabolic stable example compounds in the HLM assay were further evaluated for pharmacokinetic properties in vivo. In a representative experiment, selected example compounds were dosed to rats intravenously (IV, 5 mg/kg, 30% PEG400+30% PG+1% DMSO in saline) and orally (PO, 10 mg/kg, 2.4% DMSO+0.1% Tween80 in 0.5% CMC-Na), rat blood samples were taken at designed time points after dosing and analyzed for tested drug concentrations using LC-MS/MS. Pharmacokinetic parameters were derived from the time curve of drug concentrations.

NCI-H23 = test: NCI60 panel growth inhibition, NCI-H23; assay type: cell-based; conditions: Homo sapiens
Experimental: (§3) Cell growth inhibitory activities against cancer cells of the present compounds were also evaluated by submitting selected the example compounds to US NCI-Chemotherapeutic Agents Repository for screening against NCI60 panel. The United States NCI-60 platform is a cancer cell platform established with 60 different human cancer cell lines from 9 different kinds of organs. This platform represents the biological characteristics of the corresponding tumor type. The drugs were screened by measuring the ability of each test compound at a range of concentrations to inhibit the growth of various tumor cells.

NCI 60 human cell lines = test: NCI60 panel growth inhibition, average over 60 cell lines; assay type: cell-based
Experimental: as §3

mTOR (FRAP1) = mTOR (FRAP1) (Homo sapiens, UniProt P42345); test: SelectScreen Profiling, Z'-LYTE kinase assay, mTOR (FRAP1); assay type: biochemical; conditions: 0.1 μM compound, ATP at Km, read-out: mTOR inh% @0.1 μM
Text: as §1

[2] = Metabolic stability in human liver microsome (HLM); assay type: in vitro ADME; conditions: incubation with human liver microsome for 60 min
Experimental: as §2

MCF-7 = test: NCI60 panel growth inhibition, MCF-7; assay type: cell-based; conditions: Homo sapiens, MCF7
Experimental: as §3

PC-3 = test: NCI60 panel growth inhibition, PC-3; assay type: cell-based; conditions: Homo sapiens
Experimental: as §3

PI3Kα = PI3Kα (Homo sapiens, UniProt P42336); test: SelectScreen Profiling, Adapta kinase assay, PI3Kα; assay type: biochemical; conditions: 0.1 μM compound, ATP at Km, read-out: PI3Kα inh % @0.1 μM
SKOV-3 = test: NCI60 panel growth inhibition, SKOV-3; assay type: cell-based; conditions: Homo sapiens, SK-OV-3
Experimental: as §3

NCI-H460 = test: NCI60 panel growth inhibition, NCI-H460; assay type: cell-based; conditions: Homo sapiens
Experimental: as §3

FGFR1 = FGFR1 (Homo sapiens, UniProt P11362); test: SelectScreen Profiling, Z'-LYTE kinase assay, FGFR1; assay type: biochemical; conditions: 1 μM compound, ATP at Km, read-out: FGFR 1 inh % @1 μM
Text: as §1

A549 = test: NCI60 panel growth inhibition, A549; assay type: cell-based; conditions: Homo sapiens
Experimental: as §3

HCT-116 = test: NCI60 panel growth inhibition, HCT-116; assay type: cell-based; conditions: Homo sapiens
Experimental: as §3

HER2 = HER2 (Homo sapiens, UniProt P04626); test: SelectScreen Profiling, Z'-LYTE kinase assay, HER2; assay type: biochemical; conditions: 1 μM compound, ATP at Km, read-out: HER2 inh % @1 μM
Text: as §1

[3] = system: mammalian tumor cell lines such as PC-3, LNCAP, U87, Huh-7, HepG2 and MDA-MB-468; test: Cell proliferation/survival MTT assay in tumor cell lines; assay type: cell-based; conditions: 5 days (120 h) culture; cell line not specified; read-out: IC50, inhibition of tumor cell growth (MTT)
Experimental: The cytotoxic or cytostatic activity of Formula I-III exemplary compounds was measured by establishing proliferating mammalian tumor cell lines such as PC-3, LNCAP, U87, Huh-7, HepG2 and MDA-MB-468 in a cell culture medium, adding a test compound, culturing the cells for a period of 5 days by measuring cell viability via MTT assays. Dose response data were obtained for each test compound and the degree of inhibition of tumor cell growth was expressed as an IC50 value. […] For example. For example, compounds of example 14, 15, 46,29, 45, 49, 122, 88, 54, 55, 58, 59, 63, 64, 66, 67, 68, 113, 86, 90.
PC-3 (or U87) cells were seeded in 96-well plates at low density (at 2,000 cells per well) in media supplemented with 10% FBS (growth media) and transferred to serum-free media (1% FBS) after 24 h. Designated concentrations of drug were added to each well. The cells were incubated for 120 h. At the end of drug exposure, 20 μL/well of MTT solution was added. After 4 h at 37° C. in a humidified 5% CO2 atmosphere, the absorbance at 490 nm was recorded by using a microplate reader. IC50 was calculated using GraphPad Prism version 5 for Windows. The curves were fit using a nonlinear regression model with a log (inhibitor) versus response formula.

Sequence of HER1 (EGFR) (P00533 25-1210): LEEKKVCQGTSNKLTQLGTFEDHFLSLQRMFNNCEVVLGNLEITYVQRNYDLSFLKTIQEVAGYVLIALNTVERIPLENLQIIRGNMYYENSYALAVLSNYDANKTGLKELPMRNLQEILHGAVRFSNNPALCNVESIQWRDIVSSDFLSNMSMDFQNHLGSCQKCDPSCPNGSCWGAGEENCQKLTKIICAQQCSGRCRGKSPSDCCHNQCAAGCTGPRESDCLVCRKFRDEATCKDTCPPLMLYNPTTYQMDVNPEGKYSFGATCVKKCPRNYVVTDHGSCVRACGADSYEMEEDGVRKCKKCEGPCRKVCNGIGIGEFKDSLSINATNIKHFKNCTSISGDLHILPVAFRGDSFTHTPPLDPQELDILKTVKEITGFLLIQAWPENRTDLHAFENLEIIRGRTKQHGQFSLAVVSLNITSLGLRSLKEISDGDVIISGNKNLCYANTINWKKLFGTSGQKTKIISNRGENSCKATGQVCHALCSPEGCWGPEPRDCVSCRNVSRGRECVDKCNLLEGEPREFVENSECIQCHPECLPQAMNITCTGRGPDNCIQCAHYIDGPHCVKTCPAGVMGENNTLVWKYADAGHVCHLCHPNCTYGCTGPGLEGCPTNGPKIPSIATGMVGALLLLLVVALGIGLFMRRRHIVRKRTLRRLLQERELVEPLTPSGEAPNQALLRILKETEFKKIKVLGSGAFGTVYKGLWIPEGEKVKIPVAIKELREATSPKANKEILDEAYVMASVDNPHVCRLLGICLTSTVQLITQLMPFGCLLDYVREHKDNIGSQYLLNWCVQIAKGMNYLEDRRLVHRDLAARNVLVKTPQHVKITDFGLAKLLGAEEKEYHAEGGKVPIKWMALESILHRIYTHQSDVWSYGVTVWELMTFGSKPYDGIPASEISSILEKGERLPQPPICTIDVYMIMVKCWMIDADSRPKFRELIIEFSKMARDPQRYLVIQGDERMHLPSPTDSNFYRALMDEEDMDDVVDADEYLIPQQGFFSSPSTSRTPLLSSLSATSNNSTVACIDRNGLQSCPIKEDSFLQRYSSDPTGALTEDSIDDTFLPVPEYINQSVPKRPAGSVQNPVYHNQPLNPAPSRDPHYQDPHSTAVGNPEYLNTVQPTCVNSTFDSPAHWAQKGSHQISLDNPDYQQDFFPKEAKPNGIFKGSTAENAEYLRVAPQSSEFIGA
Sequence of VEGF2 (P35968 20-1356): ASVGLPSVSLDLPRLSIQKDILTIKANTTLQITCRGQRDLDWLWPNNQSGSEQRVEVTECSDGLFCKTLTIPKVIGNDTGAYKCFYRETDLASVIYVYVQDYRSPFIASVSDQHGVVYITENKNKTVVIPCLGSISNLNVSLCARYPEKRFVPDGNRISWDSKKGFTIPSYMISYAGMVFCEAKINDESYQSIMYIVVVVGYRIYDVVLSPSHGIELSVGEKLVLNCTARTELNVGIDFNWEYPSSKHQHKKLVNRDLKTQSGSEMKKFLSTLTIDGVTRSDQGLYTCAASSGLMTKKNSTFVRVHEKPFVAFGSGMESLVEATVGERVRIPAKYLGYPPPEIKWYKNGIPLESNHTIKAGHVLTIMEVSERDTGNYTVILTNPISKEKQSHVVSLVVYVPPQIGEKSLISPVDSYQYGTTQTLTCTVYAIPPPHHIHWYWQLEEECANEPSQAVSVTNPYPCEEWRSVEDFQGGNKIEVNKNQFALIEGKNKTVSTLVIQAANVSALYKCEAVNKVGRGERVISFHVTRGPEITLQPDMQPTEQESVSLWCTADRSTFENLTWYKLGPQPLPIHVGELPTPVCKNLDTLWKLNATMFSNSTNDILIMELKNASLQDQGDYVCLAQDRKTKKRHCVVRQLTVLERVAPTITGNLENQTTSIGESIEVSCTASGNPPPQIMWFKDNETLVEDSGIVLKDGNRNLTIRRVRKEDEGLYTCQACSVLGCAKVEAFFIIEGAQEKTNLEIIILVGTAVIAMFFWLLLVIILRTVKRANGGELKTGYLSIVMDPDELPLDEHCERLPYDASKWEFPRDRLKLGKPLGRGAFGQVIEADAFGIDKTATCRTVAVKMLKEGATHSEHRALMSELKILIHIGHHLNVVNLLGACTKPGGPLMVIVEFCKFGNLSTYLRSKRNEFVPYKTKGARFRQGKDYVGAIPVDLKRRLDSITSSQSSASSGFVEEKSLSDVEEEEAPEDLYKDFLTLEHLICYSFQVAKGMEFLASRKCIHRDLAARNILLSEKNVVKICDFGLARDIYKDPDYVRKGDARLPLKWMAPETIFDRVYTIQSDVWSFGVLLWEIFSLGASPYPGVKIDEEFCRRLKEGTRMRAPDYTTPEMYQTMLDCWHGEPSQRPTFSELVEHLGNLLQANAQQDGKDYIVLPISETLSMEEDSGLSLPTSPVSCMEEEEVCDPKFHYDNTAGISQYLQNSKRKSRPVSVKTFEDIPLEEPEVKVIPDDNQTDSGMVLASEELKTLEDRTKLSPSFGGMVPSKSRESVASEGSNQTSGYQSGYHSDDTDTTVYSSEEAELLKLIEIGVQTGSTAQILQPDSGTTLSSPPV
Sequence of PI3Kα (P42336 whole entry): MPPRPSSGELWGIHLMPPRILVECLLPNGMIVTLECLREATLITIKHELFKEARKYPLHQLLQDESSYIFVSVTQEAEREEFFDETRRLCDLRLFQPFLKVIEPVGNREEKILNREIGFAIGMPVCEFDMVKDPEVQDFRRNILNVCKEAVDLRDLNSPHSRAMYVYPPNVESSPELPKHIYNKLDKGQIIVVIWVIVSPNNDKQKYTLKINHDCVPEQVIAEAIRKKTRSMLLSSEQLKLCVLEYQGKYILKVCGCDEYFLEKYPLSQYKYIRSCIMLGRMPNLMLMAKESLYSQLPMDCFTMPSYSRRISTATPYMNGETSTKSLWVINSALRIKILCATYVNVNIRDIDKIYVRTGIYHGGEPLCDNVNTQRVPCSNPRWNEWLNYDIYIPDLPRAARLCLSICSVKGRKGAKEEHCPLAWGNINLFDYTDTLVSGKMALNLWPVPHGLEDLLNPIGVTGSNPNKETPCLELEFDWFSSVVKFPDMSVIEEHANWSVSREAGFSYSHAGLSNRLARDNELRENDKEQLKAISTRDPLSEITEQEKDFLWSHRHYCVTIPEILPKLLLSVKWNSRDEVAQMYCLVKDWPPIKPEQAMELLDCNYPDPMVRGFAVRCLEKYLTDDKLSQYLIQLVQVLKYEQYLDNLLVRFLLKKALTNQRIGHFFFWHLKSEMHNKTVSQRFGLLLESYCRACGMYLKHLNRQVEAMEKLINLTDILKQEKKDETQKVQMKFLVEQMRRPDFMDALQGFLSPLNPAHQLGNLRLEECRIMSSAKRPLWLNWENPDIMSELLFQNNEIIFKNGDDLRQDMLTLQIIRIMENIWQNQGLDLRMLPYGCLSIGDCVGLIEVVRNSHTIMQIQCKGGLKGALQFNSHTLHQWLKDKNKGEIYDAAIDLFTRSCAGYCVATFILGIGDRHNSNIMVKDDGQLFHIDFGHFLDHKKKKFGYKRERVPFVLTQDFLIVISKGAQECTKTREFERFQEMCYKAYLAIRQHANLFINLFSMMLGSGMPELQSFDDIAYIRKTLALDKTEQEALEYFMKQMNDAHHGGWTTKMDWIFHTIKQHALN
Sequence of PI3Kα (P27986 whole entry partner): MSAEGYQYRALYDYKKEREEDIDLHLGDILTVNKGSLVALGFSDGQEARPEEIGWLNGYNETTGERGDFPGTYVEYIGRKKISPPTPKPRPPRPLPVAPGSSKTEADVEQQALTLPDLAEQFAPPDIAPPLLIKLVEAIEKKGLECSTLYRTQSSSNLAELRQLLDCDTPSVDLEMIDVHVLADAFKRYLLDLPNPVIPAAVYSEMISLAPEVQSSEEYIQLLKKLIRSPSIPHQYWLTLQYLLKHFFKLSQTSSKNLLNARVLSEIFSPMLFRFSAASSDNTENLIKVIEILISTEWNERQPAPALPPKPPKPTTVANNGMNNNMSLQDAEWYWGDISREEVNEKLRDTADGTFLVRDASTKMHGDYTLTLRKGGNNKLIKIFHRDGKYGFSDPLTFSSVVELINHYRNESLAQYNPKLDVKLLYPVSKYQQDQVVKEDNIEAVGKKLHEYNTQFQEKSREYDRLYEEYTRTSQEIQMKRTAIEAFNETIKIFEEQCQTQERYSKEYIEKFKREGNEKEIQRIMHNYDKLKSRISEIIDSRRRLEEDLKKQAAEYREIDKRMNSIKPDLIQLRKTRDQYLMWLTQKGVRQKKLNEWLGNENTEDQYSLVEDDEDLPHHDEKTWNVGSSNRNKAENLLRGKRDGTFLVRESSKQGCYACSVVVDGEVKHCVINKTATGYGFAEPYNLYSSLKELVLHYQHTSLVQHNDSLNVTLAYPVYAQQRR
Sequence of FGFR1 (P11362 22-822): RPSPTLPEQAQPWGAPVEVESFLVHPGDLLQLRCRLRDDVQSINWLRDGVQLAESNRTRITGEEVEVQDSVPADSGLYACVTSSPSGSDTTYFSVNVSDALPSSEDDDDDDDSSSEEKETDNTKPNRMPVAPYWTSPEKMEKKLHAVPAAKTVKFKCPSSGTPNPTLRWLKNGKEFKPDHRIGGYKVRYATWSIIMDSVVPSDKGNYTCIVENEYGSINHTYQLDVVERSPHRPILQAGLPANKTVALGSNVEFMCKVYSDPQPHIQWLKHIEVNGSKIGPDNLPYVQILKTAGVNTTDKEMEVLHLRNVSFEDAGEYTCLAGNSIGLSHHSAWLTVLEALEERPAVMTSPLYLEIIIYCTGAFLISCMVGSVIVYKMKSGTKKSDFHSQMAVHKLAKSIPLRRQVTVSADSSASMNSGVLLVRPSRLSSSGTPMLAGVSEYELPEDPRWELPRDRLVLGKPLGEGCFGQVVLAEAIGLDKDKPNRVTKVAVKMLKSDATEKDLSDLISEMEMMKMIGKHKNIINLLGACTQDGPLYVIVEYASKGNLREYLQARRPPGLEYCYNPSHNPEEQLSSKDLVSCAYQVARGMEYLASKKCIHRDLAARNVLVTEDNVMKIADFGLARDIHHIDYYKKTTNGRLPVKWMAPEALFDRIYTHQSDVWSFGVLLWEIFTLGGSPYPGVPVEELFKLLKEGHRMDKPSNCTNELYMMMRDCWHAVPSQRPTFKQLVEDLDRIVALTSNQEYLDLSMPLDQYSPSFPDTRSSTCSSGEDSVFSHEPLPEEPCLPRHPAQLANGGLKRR

Row | Compound | inhibition at 1 µM (VEGF2) | inhibition at 1 µM (HER1 (EGFR)) | AUC(0-t) ([1]; IV 5 mg/kg) | Cmax ([1]; IV 5 mg/kg) | MRT ([1]; IV 5 mg/kg) | clearance ([1]; IV 5 mg/kg) | half-life ([1]; IV 5 mg/kg) | GI50 (NCI-H23) | GI50 (NCI 60 human cell lines) | inhibition at 0.1 µM (mTOR (FRAP1)) | metabolic stability in HLM [2] | GI50 (MCF-7) | GI50 (PC-3) | inhibition at 0.1 µM (PI3Kα) | GI50 (SKOV-3) | GI50 (NCI-H460) | inhibition at 1 µM (FGFR1) | GI50 (A549) | inhibition at 1 µM (HER2) | IC50 [3] | further results
1 | O=C(Nc1ccc(-c2nc(N3CCOCC3)c3cccn3n2)cc1)Nc1cccnc1 [Example 14] | 8% | -1% | 10100 ng·h/mL | 6560 ng/mL | 1.7 h | 10.3 mL/min/kg | 1.3 h | 0.269 µM | 0.12 µM | 87% | metabolically stable | 0.0483 µM | 0.051 µM | 11% | 0.0987 µM | 0.142 µM | 1% | 0.244 µM | -8% | < 0.5 µM | CL ([1]; PO 10 mg/kg): 30.13 mL/min/kg; AUC(0-t) ([1]; PO 10 mg/kg): 4900 ng·h/mL; Cmax ([1]; PO 10 mg/kg): 784 ng/mL; MRT ([1]; PO 10 mg/kg): 5.71 h; Tmax ([1]; PO 10 mg/kg): 1 h; half-life ([1]; PO 10 mg/kg): 3.28 h; bioavailability [1]: 22%; GI50 (HCT-116): 0.041 µM
2 | CN(C)C1CCN(C(=O)c2ccc(NC(=O)Nc3ccc(-c4nc(N5CCOCC5)c5cccn5n4)cc3)cc2)CC1 [Example 15] | 8% | -2% | 3430 ng·h/mL | 4710 ng/mL | 5.57 h | 17.8 mL/min/kg | 4.98 h | 0.123 µM | 0.076 µM | 98% | metabolically stable | < 0.01 µM | 0.025 µM | 54% | 0.0463 µM | 0.067 µM | 4% | 0.0545 µM | -7% | < 0.5 µM | GI50 (HCT-116): 0.0657 µM
3 | O=C(NCCO)Nc1ccc(-c2nc(N3CCOCC3)c3cccn3n2)cc1 [Example 29] | 11% | -1% | 16600 ng·h/mL | 11900 ng/mL | 1.84 h | 4.83 mL/min/kg | 1.49 h |  |  | 94% | metabolically stable |  |  | 9% |  |  | -1% |  | -7% | < 0.5 µM | CL ([1]; PO 10 mg/kg): 99 mL/min/kg; AUC(0-t) ([1]; PO 10 mg/kg): 1650 ng·h/mL; Cmax ([1]; PO 10 mg/kg): 380 ng/mL; MRT ([1]; PO 10 mg/kg): 2.9 h; Tmax ([1]; PO 10 mg/kg): 2 h; half-life ([1]; PO 10 mg/kg): 1.12 h; bioavailability [1]: 5%
4 | CN(C)CCNC(=O)c1ccc(NC(=O)Nc2ccc(-c3nc(N4CCOCC4)c4cccn4n3)cc2)cc1 [Example 45] | 10% | -2% |  |  |  |  |  |  |  | 98% |  |  |  | 0% |  |  | 4% |  | -9% | < 0.5 µM | 
5 | CN1CCN(C(=O)c2ccc(NC(=O)Nc3ccc(-c4nc(N5CCOCC5)c5cccn5n4)cc3)cc2)CC1 [Example 46] | 11% | 0% | 8760 ng·h/mL | 8460 ng/mL | 3.66 h | 8.28 mL/min/kg | 3.25 h | 0.0962 µM | 0.059 µM | 86% | metabolically stable | 0.0144 µM | 0.023 µM |  | 0.0268 µM | 0.0597 µM | -3% | 0.0665 µM | -6% | < 0.5 µM | GI50 (HCT-116): 0.0602 µM
6 | O=C(Nc1ccc(C(=O)N2CCC(O)CC2)cc1)Nc1ccc(-c2nc(N3CCOCC3)c3cccn3n2)cc1 [Example 55] | 11% | 0% |  |  |  |  |  |  |  | 90% | metabolically stable |  |  |  |  |  | -1% |  | 5% | < 0.5 µM | 
7 | CN(C)[C@@H]1CCN(C(=O)c2ccc(NC(=O)Nc3ccc(-c4nc(N5CCOCC5)c5cccn5n4)cc3)cc2)C1 [Example 58] | 10% | 1% |  |  |  |  |  |  |  | 97% |  |  |  |  |  |  | 4% |  | -5% | < 0.5 µM | 
8 | CN1CCCN(C(=O)c2ccc(NC(=O)Nc3ccc(-c4nc(N5CCOCC5)c5cccn5n4)cc3)cc2)CC1 [Example 59] | 10% | 2% |  |  |  |  |  |  |  | 93% |  |  |  |  |  |  | 7% |  | -2% | < 0.5 µM | 
